Laboratory results from patent publication US20190358247A1 (The Medical College of Wisconsin, Inc., priority 2016, published 2019).
pIC50: −log10 of the molar value. Where “and” joins values, the source holds several entries; their conditions need not be identical. Equal entries are not always repeated.

Tests used:
MiaPaCa-2 cells [1] = test: Sytox Green cytotoxicity assay; type: cell-based; settings: 100 μM, 24 h
Protocol: Cytotoxicity assay. To determine the cytotoxicity of Mito-Met analogs and other TPP^+-conjugated to a long chain aliphatic hydrocarbon, we used the Sytox assay as described previously. MiaPaCa-2 cells were treated for 24 h, and dead cells were monitored in the presence of 200 nM Sytox Green (Invitrogen). The Sytox method labels the nuclei of dead cells yielding green fluorescence. Fluorescence intensities from the dead cells in 96-well plate were acquired in real time every 15 min after 4 h using a plate reader (BMG Labtech, Inc.) equipped with an atmosphere controller set at 37° C. and 5% CO2:95% air, using a fluorescence detection with 485 nm (excitation) and 535 nm (emission). To measure the total cell number, all of the samples in each treatment group were permeabilized by adding Triton X 100 (0.065%) in the presence of Sytox Green for 3 h, and maximal fluorescence intensities were taken as 100%. Data are represented as a percentage of dead cells after normalization to total cell number for each group.
Induction of cell death was monitored by Sytox Green staining, as shown previously. MiaPaCa-2 cells were treated with Mito-Met10 (100 μM), Mito-CP (100 μM), or Met (30 mM) and other controls for 24 h and cell death was measured in real time.

MCF-10A = test: IncuCyte cell confluence assay, nonmalignant breast epithelial cells; type: cell-based
Protocol: (§1) IncuCyte Analyzer-real time measurement of cell proliferation. The cell proliferation was measured using a label-free, noninvasive cellular confluence assay by IncuCyte Live-Cell Imaging Systems (Essen Bioscience, Ann Arbor, Mich., USA; IncuCyte FLR). This system enables collection of live cell images at 2 h intervals over several days. The IncuCyte Analyzer provides real-time cellular confluence data based on segmentation of high-definition phase-contrast images. The cell proliferation is expressed as an increase in percentage of cell confluence.

AMPK = test: Immunoblot of phosphorylated AMPK Thr-172 relative to total AMPK, MiaPaCa-2 cells; type: cell-based, human
Protocol: In this example, the inventors have shown that the mito-met compounds of the present invention cause an increased AMPK activation in cancer cells. In preliminary experiments (FIG. 4), human MiaPaCa2 and murine FC1199 PDAC cells treated 30 min with 1 μM mito-met (MM), 1 mM Met, or the oligomycin positive control were lysed, and proteins size-separated on SDS-PAGE, transferred to PVDF, and probed with an antibody to phosphorylated AMPK Thr-172.
Immunoblotting. MiaPaCa-2 PDAC cells (1×10^6) were plated to 80% confluency in 60 mm dishes and then serum-starved for 5 hours. […] Cells were stimulated with oligomycin as a positive control. After stimulation, cells were washed twice in cold PBS and lysed using a modified RIPA buffer. Lysates were normalized for protein concentration, size separated using reducing SDS-PAGE, electro-transferred to PVDF membranes (Millipore) and then probed using primary and horseradish peroxidase-conjugated secondary antibodies. Antibodies against total or phosphorylated 5′ AMP-activated protein kinase (AMPK) were purchased from Cell Signaling Technology (Danvers, Mass.) and used at the manufacturer's recommended dilutions. Proteins were visualized by chemiluminescence with auto-exposure and quantified by densitometric analysis using the FluorChem HD2 from Cell Biosciences (Santa Clara, Calif.).
AMPK activation in Mito-Met and Met-treated PDAC cells. […]

HaCaT = test: IncuCyte cell confluence assay, keratinocytes; type: cell-based
Protocol: as §1

mitochondrial complex I = mitochondrial complex I (Homo sapiens, UniProt O75251+O75306+P03886); test: Complex I oxygen consumption (pyruvate/malate) in permeabilized cells, Seahorse XF96; type: cell-based
Protocol: Respiratory enzyme activity in intact and permeabilized cells. The mitochondrial function in intact and permeabilized pancreatic cancer cells was measured using a Seahorse XF96 Extracellular Flux Analyzer (Seahorse Bioscience, North Billerica, Mass., USA). Unless specified otherwise, assays in intact cells were performed as previously described. Measurement of mitochondrial respiratory complexes in permeabilized cells was performed according to the manufacturer's instructions (Seahorse Bioscience). Briefly, intact cells were permeabilized using 1 nM Plasma Membrane Permeabilizer (PMP, Seahorse Bioscience) immediately before oxygen consumption rate (OCR) measurement by XF96. The oxygen consumption derived from mitochondrial complex I or complex II activity was measured by providing different substrates to mitochondria, e.g., pyruvate/malate for complex I and succinate for complex II activity. Rotenone, malonate and antimycin A were used as specific inhibitors of mitochondrial complex I, II and III activities, respectively.
The oxygen consumption rate was measured using the permeabilized MiaPaCa-2 cells in MAS buffer supplemented with pyruvate. The use of permeabilized cells avoids differences in cellular uptake of compounds. […] We tested the effect of pretreating cells with Mito-Met10 or Met using the permeabilized model. MiaPaCa-2 cells were treated with Met and Mito-Met10 for 24 h and the oxygen consumption studies were performed in these cells after permeabilization.

MCF-10A cells = test: Radiosensitization, clonogenic survival after X-radiation, normal cells; type: cell-based; settings: 1 μM, 24 h pretreatment
Protocol: (§2) Radiation experiments. […] The cells were then treated with X-radiation at a dose of 0, 2, 4, and 6 Gy. The control cells were treated with the same concentration of vehicle (0.1% DMSO) where appropriate. After irradiation, cells were suspended and seeded at various densities (100-8,000 cells per well) in 6-well plates for clonogenic assay as described above. The plates were kept within the incubator and media changed every 3-4 days for 2 weeks. Wells with 10-50 sufficiently large clones were chosen for calculating the cell survival fractions.
(§3) Effect of Mito-Met and Met on PDAC radiosensitivity. Both control cells and cells were pretreated for 24 h with 1 mM Met or Mito-Met (1 μM) prior to X-radiation. Cell survival was measured by a clonogenic assay.

MiaPaCa-2 cells [2] = test: Intracellular uptake by LC-MS/MS
Protocol: Cells were grown on 10 cm dishes and treated with the compounds for 24 h in full media.
Next we investigated the relative uptake of different Mito-Met analogs (Mito-Met2, Mito-Met6, and Mito-Met10) and phenformin in MiaPaCa-2 cells (FIG. 12D). Cells were treated with respective Mito-Met analog (1 μM) for 1 h. Cells were lysed after washing and analyzed for Mito-Met analog by LC-MS.

MiaPaCa-2 cells [3] = test: Radiosensitization, clonogenic survival after X-radiation; type: cell-based, human
Protocol: MiaPaCa2 cells (1000 cells/well) were cultured in quadruplicate overnight in 96-well plates and changed to fresh medium.
as §2, §3

Chain of mitochondrial complex I (O75306 34-463): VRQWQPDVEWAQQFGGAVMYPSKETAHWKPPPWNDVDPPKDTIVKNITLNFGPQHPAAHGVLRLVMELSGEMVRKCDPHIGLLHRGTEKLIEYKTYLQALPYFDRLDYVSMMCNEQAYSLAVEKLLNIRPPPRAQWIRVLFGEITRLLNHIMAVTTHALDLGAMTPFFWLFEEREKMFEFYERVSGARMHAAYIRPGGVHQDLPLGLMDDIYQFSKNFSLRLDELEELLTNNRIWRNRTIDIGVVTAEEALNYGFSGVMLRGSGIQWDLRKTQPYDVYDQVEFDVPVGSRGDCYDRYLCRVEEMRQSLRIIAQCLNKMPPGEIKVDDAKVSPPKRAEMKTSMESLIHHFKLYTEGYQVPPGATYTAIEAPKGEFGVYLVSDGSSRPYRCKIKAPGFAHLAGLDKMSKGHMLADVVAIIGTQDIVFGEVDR
Chain of mitochondrial complex I (O75251 39-213): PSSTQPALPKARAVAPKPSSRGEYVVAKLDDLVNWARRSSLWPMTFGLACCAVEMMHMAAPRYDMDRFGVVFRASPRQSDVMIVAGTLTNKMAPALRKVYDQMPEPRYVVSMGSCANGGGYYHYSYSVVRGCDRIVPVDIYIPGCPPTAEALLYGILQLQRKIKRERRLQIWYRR
Chain of mitochondrial complex I (P03886 whole entry): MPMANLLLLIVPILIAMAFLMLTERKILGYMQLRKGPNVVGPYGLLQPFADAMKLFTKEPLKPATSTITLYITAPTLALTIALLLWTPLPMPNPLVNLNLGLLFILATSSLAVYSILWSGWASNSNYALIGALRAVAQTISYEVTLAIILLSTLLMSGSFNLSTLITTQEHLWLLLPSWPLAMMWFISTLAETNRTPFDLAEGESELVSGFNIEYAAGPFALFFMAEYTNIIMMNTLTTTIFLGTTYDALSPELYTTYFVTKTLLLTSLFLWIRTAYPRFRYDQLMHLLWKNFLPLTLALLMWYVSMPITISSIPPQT
Chain of mitochondrial complex I (O75489 37-264, further chain): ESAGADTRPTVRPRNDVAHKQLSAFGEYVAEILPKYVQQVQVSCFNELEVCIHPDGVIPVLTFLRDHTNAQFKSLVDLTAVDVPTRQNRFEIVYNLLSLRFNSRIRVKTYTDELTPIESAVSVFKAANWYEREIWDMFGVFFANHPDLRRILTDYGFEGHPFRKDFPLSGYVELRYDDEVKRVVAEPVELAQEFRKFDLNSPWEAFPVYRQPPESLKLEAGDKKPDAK
Chain of mitochondrial complex I (P03897 whole entry, further chain): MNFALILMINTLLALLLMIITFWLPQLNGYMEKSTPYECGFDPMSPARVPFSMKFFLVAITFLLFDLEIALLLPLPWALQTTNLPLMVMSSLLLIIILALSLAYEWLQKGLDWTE

Br.N=C(N)NC(=N)NCCCCCCCCCC[P+](c1ccccc1)(c1ccccc1)c1ccccc1 [Mito-Met10]
cell death, Sytox Green staining (MiaPaCa-2 cells [1]): no detectable cell death
effect on cell confluence (MCF-10A): not significantly affected
potency of AMPK activation relative to metformin (AMPK; MiaPaCa-2): ~1,000 fold
increase in active AMPK (phosphorylated relative to total protein) (AMPK; human MiaPaCa-2, 1 μM, 30 min): 1.5-2.5 fold
effect on cell confluence (HaCaT): not significantly affected
concentration giving significant decrease in OCR (complex I inhibition) (mitochondrial complex I; 24 h treatment, then permeabilized): 0.75 µM
fold more effective than Met in inhibiting complex I-mediated oxygen consumption (mitochondrial complex I; MiaPaCa-2): 2,000 fold
pIC50 (mitochondrial complex I; read-out: IC50, mitochondrial complex I-mediated oxygen consumption, MiaPaCa-2, 24 h pretreatment, then permeabilized): 6.40 and ~6.37
radiosensitivity in normal cells (MCF-10A cells): no radiosensitivity was observed
difference in intracellular uptake and retention, MiaPaCa-2 and MCF-10A cells (MiaPaCa-2 cells [2]; LC-MS): four-fold
cellular uptake relative to phenformin (MiaPaCa-2 cells [2]; MiaPaCa-2, LC-MS): ~100 fold
radiosensitizing concentration, fold lower than Met (MiaPaCa-2 cells [3]; 1 μM versus Met 1 mM): 1,000 fold
radiosensitization (MiaPaCa-2 cells [3]; 24 h pretreatment (1 mM Met, 1 μM Mito-Met) before X-radiation): as effective as 1 mM Met
